What is called EC50 is the concentration at which the effect is half-maximal.

One assay concerns the target T1, Human TRPML3 (Homo sapiens, UniProt Q8TDD5).
T1 construct: expressed in transfected cells
T1 sequence (Q8TDD5 1-553): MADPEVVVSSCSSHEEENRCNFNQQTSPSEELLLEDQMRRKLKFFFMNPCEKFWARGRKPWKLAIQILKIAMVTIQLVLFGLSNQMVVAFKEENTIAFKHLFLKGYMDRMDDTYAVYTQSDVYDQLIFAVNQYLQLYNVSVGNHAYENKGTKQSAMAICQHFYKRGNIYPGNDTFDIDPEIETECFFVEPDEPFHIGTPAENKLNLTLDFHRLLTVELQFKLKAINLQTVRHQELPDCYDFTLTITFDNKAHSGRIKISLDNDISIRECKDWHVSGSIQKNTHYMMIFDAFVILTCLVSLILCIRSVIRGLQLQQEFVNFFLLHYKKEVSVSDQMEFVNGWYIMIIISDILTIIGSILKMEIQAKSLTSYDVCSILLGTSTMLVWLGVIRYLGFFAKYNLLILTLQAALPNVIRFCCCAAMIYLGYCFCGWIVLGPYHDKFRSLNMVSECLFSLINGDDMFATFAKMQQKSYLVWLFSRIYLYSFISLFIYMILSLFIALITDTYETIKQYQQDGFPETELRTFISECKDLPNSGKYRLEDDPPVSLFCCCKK
The experiment in a line: Fluorescent TRPML3 assay (as for TRPML1). The settings on record: fluorescent calcium assay as for TRPML1, TRPML3 subtype. Type of assay: cell-based. The method, then:
(§1) HEK-293 Trex cells were stably transfected with a construct consisting of the human coding sequence for TRPML1 cloned into the tet-inducible plasmid pCDNA5 T/O. Mutations were introduced into the TRPML1 sequence to facilitate expression on the cell surface (Silvia Vergarajauregui, Rosa Puertollano Traffic. 2006 March; 7(3): 337-353). Briefly, the cells are cultured in 150 mm round tissue culture dishes containing 20 mL of media. The day before the assay the cells are rinsed with DPBS-Ca-Mg and then treated briefly with Trypsin-EDTA. The Trypsin-EDTA is diluted with growth media, and cells are counted. 38×10^6 cells are re-plated into 150 mm round tissue culture dishes in media containing 0.5 μg/mL doxycycline to induce expression of hTRPML1.
(§2) The day of the experiment cells are lifted from the plates as above and collected by centrifugation. The cells are then suspended in dye loading buffer consisting of Ringer's solution supplemented with 0.1% Pluronic Acid and 1 micromolar Fluo4-AM dye. Cells are loaded for ~60 minutes in the dark with occasional mixing. The cells are collected by centrifugation, the loading media aspirated, and the cells resuspended in 25 mL Ringer's solution and incubated ~60 minutes in the dark. The cells are again collected by centrifugation, rinsed in Ringer's Solution and resuspended to 0.2×10^6 cells/mL in modified Ringer's solution containing 10 mM calcium.
(§3) Compounds are dissolved to a concentration of 10 millimolar with DMSO. Compound plates are created by dispensing compounds into 384 well black wall clear bottom plates (Greiner 781091). Positive and negative controls are included on each plate. Typically, different amounts of each compound are tested ranging from 100 nanoMoles (20 micromolar final concentration) decreasing in half-log steps to 31 picoMoles (6 nanomolar final concentration). Each concentration is typically tested in triplicate.
(§4) 50 microliters of dye-loaded cells are dispensed into each well of the compound assay plate created above. The fluorescence in each well is then determined with an excitation wavelength of 480 nm and an emission wavelength of 540 nm using either a Molecular Devices SpectraMax multimode plate reader or a Hamamatsu FDSS/uCell plate imager.
(§5) The resulting fluorescence for each well is exported as an ascii file and loaded into our LIMS for analysis. The percent activity of each compound at each concentration is determined by comparison to the positive and negative control wells included in each plate.
Assays for TRPML2 and TRPML3 were performed as above for TRPML1, by substituting the appropriate TRPML2 or TRPML3 subtype for the TRPML1.
(§6) EC50 values were calculated using a non-linear regression of Prism. In the table, “A” indicates an EC50 of less than 100 nM, “B” indicates an EC50 range from 100 nM to 500 nM: “C” indicates an EC50 range from 500 nM to 2 μM; and “D” indicates an EC50 greater than 2 μM.

For a further assay, the target named is Human TRPML1 (Homo sapiens, UniProt Q9GZU1, L15A/L16A/L577A/L578A). Nature of the assay: Fluorescent TRPML1 assay (Fluo4-AM, HEK-293 Trex cells expressing hTRPML1). Type of assay: cell-based. The following applies: fluorescent calcium assay, doxycycline-induced hTRPML1. The protocol: Example 27. Fluorescent TRPML Assays
Sequence of Human TRPML1 (Q9GZU1 whole entry L15A/L16A/L577A/L578A): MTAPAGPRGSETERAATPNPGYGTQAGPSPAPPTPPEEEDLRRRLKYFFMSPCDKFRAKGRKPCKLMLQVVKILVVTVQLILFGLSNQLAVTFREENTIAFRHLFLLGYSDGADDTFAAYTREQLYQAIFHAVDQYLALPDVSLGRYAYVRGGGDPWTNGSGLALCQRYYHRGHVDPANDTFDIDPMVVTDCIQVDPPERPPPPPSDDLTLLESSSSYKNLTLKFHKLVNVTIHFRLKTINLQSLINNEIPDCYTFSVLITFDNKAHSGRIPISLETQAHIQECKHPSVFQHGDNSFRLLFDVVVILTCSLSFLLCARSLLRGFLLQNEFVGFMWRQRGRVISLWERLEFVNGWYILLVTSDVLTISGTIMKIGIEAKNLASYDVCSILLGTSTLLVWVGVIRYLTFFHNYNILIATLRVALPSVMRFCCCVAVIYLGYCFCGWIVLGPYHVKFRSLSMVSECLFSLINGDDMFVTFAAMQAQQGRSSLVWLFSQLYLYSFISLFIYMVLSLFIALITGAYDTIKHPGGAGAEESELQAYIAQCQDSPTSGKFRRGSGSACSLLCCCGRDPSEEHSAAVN
as §1, §2, §3, §4, §5, §6

Some results are limits rather than exact numbers.

Consider `CC[C@H]1CN(C(=O)C(C)(C)O)CCN1c1ncnc2c1c(-c1ccccc1)cn2-c1cc(C#N)ccn1` [Compound 111, (S)-2-(4-(2-ethyl-4-(2-hydroxy-2-methylpropanoyl)piperazin-1-yl)-5-phenyl-7H-pyrrolo[2,3-d]pyrimidin-7-yl)isonicotinonitrile], for which the EC50 on Human TRPML3 was 500 to 2000 nM; at Human TRPML1 it was 100 to 500 nM.

Consider `C[C@@H]1CN(c2ncnc3c2c(-c2ccccc2F)cn3-c2cc(C#N)ccn2)[C@@H](C)CN1C(=O)C(C)(O)CO` (stereo partly drawn) [Compound 167, 2-(4-((2S,5R)-4-(2,3-dihydroxy-2-methylpropanoyl)-2,5-dimethylpiperazin-1-yl)-5-(2-fluorophenyl)-7H-pyrrolo[2,3-d]pyrimidin-7-yl)isonicotinonitrile], for which the figures for the EC50 at Human TRPML3 and at Human TRPML1 were 500 to 2000 nM and 100 to 500 nM, respectively.

Take `C[C@H]1CN(C(=O)C2(O)CCC2)CCN1c1ncnc2c1c(-c1ccccc1F)cn2-c1cc(C#N)ccn1` [Compound 117, (S)-2-(5-(2-fluorophenyl)-4-(4-(1-hydroxycyclobutane-1-carbonyl)-2-methylpiperazin-1-yl)-7H-pyrrolo[2,3-d]pyrimidin-7-yl)isonicotinonitrile]: the EC50 on Human TRPML3 and on Human TRPML1 was 500 to 2000 nM each time.

With `C[C@@H]1CN(c2ncnc3c2c(N2CCC2)cn3-c2cc(C#N)ccn2)[C@@H](C)CN1C(=O)C(C)(C)O` [Compound 107, 2-(5-(azetidin-1-yl)-4-((2S,5R)-4-(2-hydroxy-2-methylpropanoyl)-2,5-dimethylpiperazin-1-yl)-7H-pyrrolo[2,3-d]pyrimidin-7-yl)isonicotinonitrile], the EC50 on Human TRPML3 was greater than 2000 nM; on Human TRPML1, 100 to 500 nM.

Turning to `C[C@H]1CN(C(=O)C(C)(C)O)[C@H](CO)CN1c1ncnc2c1c(-c1ccccc1F)cn2-c1cc(C#N)ccn1` [Compound 168, 2-(5-(2-fluorophenyl)-4-((2S,5S)-4-(2-hydroxy-2-methylpropanoyl)-5-(hydroxymethyl)-2-methylpiperazin-1-yl)-7H-pyrrolo[2,3-d]pyrimidin-7-yl)isonicotinonitrile], the EC50 on Human TRPML3 is greater than 2000 nM; on Human TRPML1, 500 to 2000 nM.

For the molecule `C[C@@H]1CN(c2ncnc3c2c(-c2ccns2)cn3-c2cc(C#N)ccn2)[C@@H](C)CN1C(=O)C(C)(C)O` [Compound 153, 2-(4-((2S,5R)-4-(2-hydroxy-2-methylpropanoyl)-2,5-dimethylpiperazin-1-yl)-5-(isothiazol-5-yl)-7H-pyrrolo[2,3-d]pyrimidin-7-yl)isonicotinonitrile], the EC50 at Human TRPML3 and at Human TRPML1 was 500 to 2000 nM each time.

In the case of `C[C@@H]1CN(c2ncnc3c2c(-c2ccno2)cn3-c2cc(C#N)ccn2)[C@@H](C)CN1C(=O)C(C)(C)O` [Compound 152], the EC50 on Human TRPML3 was greater than 2000 nM; on Human TRPML1, 500 to 2000 nM.

Consider `C[C@@H]1CN(c2ncnc3c2c(-c2ccccc2)cn3-c2cc(C#N)ccn2)[C@@H](C)CN1C(=O)C(C)(C)O` [Compound 101, 2-(4-((2S,5R)-4-(2-hydroxy-2-methylpropanoyl)-2,5-dimethylpiperazin-1-yl)-5-phenyl-7H-pyrrolo[2,3-d]pyrimidin-7-yl)isonicotinonitrile], for which the EC50 on Human TRPML3 is 500 to 2000 nM; at Human TRPML1, less than 100 nM.

With `C[C@@H]1CN(c2ncnc3c2c(-c2ccncc2)cn3-c2cc(C#N)ccn2)[C@@H](C)CN1C(=O)C1(O)CC1` [Compound 149, 2-(4-((2S,5R)-4-(1-hydroxycyclopropane-1-carbonyl)-2,5-dimethylpiperazin-1-yl)-5-(pyridin-4-yl)-7H-pyrrolo[2,3-d]pyrimidin-7-yl)isonicotinonitrile], the EC50 on Human TRPML3 is greater than 2000 nM; at Human TRPML1, 500 to 2000 nM.

For the molecule `C[C@@H]1CN(c2ncnc3c2c(-c2ccccc2)cn3-c2cc(C#N)ccn2)[C@@H](C)CN1C(=O)C1(O)CN(C)C1` [Compound 130, 2-(4-((2S,5R)-4-(3-hydroxy-1-methylazetidine-3-carbonyl)-2,5-dimethylpiperazin-1-yl)-5-phenyl-7H-pyrrolo[2,3-d]pyrimidin-7-yl)isonicotinonitrile], the EC50 is greater than 2000 nM at Human TRPML3 and 500 to 2000 nM on Human TRPML1.

In the case of `C[C@@H]1CN(c2ncnc3c2c(-c2ccncc2)cn3-c2cc(F)ccn2)[C@@H](C)CN1C(=O)C(C)(C)O` [Compound 136, 1-((2R,5S)-4-(7-(4-fluoropyridin-2-yl)-5-(pyridin-4-yl)-7H-pyrrolo[2,3-d]pyrimidin-4-yl)-2,5-dimethylpiperazin-1-yl)-2-hydroxy-2-methylpropan-1-one], the EC50 is greater than 2000 nM on Human TRPML3 and 500 to 2000 nM on Human TRPML1.

As to `C[C@@H]1CN(c2ncnc3c2c(-c2cccnc2)cn3-c2cc(C#N)ccn2)[C@@H](C)CN1C(=O)C(C)(C)O` [Compound 115, 2-(4-((2S,5R)-4-(2-hydroxy-2-methylpropanoyl)-2,5-dimethylpiperazin-1-yl)-5-(pyridin-3-yl)-7H-pyrrolo[2,3-d]pyrimidin-7-yl)isonicotinonitrile], the EC50 was greater than 2000 nM on Human TRPML3 and 500 to 2000 nM at Human TRPML1.

On to `C[C@@H]1CN(c2ncnc3c2c(-c2ccccc2F)cn3-c2cc(C#N)ccn2)[C@@H](C)CN1C(=O)C1(O)CC1` [Compound 157, 2-(5-(2-fluorophenyl)-4-((2S,5R)-4-(1-hydroxycyclopropane-1-carbonyl)-2,5-dimethylpiperazin-1-yl)-7H-pyrrolo[2,3-d]pyrimidin-7-yl)isonicotinonitrile], for which the EC50 at Human TRPML3 and at Human TRPML1 was greater than 2000 nM each time.

`C[C@@H]1CN(c2ncnc3c2c(-c2ccccc2F)cn3-c2cc(C#N)ccn2)[C@@H](C)CN1C(=O)C1(O)CCN(C)CC1` [Compound 123, 2-(5-(2-fluorophenyl)-4-((2S,5R)-4-(4-hydroxy-1-methylpiperidine-4-carbonyl)-2,5-dimethylpiperazin-1-yl)-7H-pyrrolo[2,3-d]pyrimidin-7-yl)isonicotinonitrile]: the EC50 on Human TRPML3 and on Human TRPML1 was greater than 2000 nM throughout.

As for `C[C@@H]1CN(c2nccc3c2c(-c2ccncc2)cn3-c2cccc(C#N)c2)[C@@H](C)CN1C(=O)C(C)(C)O` [Compound 145, 3-(4-((2S,5R)-4-(2-hydroxy-2-methylpropanoyl)-2,5-dimethylpiperazin-1-yl)-3-(pyridin-4-yl)-1H-pyrrolo[3,2-c]pyridin-1-yl)benzonitrile], the EC50 at Human TRPML3 and on Human TRPML1 was greater than 2000 nM each time.

`C[C@@H]1CN(c2ncnc3c2c(-c2ccncc2)cn3-c2cccc(Cl)c2)[C@@H](C)CN1C(=O)C(C)(C)O` [Compound 137, 1-((2R,5S)-4-(7-(3-chlorophenyl)-5-(pyridin-4-yl)-7H-pyrrolo[2,3-d]pyrimidin-4-yl)-2,5-dimethylpiperazin-1-yl)-2-hydroxy-2-methylpropan-1-one]: the values for the half-maximal effective concentration (EC50) at Human TRPML3 and on Human TRPML1 were greater than 2000 nM and 500 to 2000 nM, respectively.

On to `C[C@@H]1CN(c2ncnc3c2c(-c2ccccc2F)cn3-c2cc(OC(F)(F)F)ccn2)[C@@H](C)CN1C(=O)C(C)(C)O` [Compound 103, 1-((2R,5S)-4-(5-(2-fluorophenyl)-7-(4-(trifluoromethoxy)pyridin-2-yl)-7H-pyrrolo[2,3-d]pyrimidin-4-yl)-2,5-dimethylpiperazin-1-yl)-2-hydroxy-2-methylpropan-1-one], for which the results for the EC50 on Human TRPML3 and at Human TRPML1 were 500 to 2000 nM and 100 to 500 nM, respectively.

The record behind these values is patent US20260285866A1, “MODULATORS OF TRPML, THEIR COMPOSITIONS AND METHODS OF USE” (Caraway Therapeutics, Inc., priority 2024, published 2026).
